Data reported in PMC4924691, “Inhibition of the p53/hDM2 protein-protein interaction by cyclometallated iridium(III) compounds” (Oncotarget, 2016).
One block for each molecule: values may come before it.

Assays:
p53/hDM2 interaction [1] = target: T1, p53/hDM2 interaction (Homo sapiens, UniProt Q00987); experiment: Fluorescence anisotropy (FA) assay, displacement of p53_15–31Flu from hDM2_17–126; format: binding; settings: for IC50 / IC50 against the p53/hDM2 interaction as determined by a FA assay: 150 nM hDM2_17–126, 50 nM p53_15–31Flu, 30 min, room temperature; for IC50: read-out: IC50 against the p53/hDM2 interaction as determined by a FA assay; for effect on fluorescence anisotropy / p53/hDM2 interaction: serial dilutions of compound, hDM2_17–126 with p53_15–31Flu
T1 construct: Expression of hDM2_17–126 recombinant fragment was performed as described previously; made in house
Experimental: To experimentally test the library of the organo-metallic iridium(III) compounds as p53/hDM2 PPI inhibitors, a fluorescence anisotropy (FA) assay was performed as previously described. hDM2_17–126 (recombinant fragment) was incubated with fluorescein-labelled p53 peptide (p53_15–31Flu) and serial dilutions of the organometallic iridium(III) compounds.
Figure 2 FA titration data of 1 1 was incubated with 150 nM hDM2_17–126 recombinant fragment and 50 nM fluorescein-labelled p53 peptide (p53_15–31Flu), and fluorescence anisotropy was measured at 480ex/535em.
Expression of hDM2_17–126 recombinant fragment was performed as described previously. Fluorescence anisotropy assays were used to study the displacement of p53 from hDM2 by organometallic compounds. The experiments were performed in triplicate in a volume of 60 μL of the assay buffer (40 mM Na3PO4, pH 7.50, 200 mM NaCl, 0.02 mg/mL BSA) in black flat-bottom 384-well plates. Different concentrations of organometallic compounds were diluted in the assay buffer containing 150 nM hDM2 and 50 nM p53_15–31Flu (Ac-[…](Flu)-NH2, Peptide Protein Research Ltd.) and incubated at room temperature for 30 min. The intensity and anisotropy was monitored at 480ex/535em ([…] bandwidth) using a Perkin Elmer EnvisionTM 2103 MultiLabel plate reader. The data was analyzed according to published methods.

p53/hDM2 interaction [2] = test system: T2, p53/hDM2 interaction; experiment: Pull-down assay of p53-Flag/hDM2-myc in A375 cells; format: cell-based, human; settings: for amount of precipitated hDM2 (pulled down with p53-Flag): 6 h of treatment; for effect of isolated ligands on the p53/hDM2 interaction: Supplementary Figure S4
T2 construct: host or cells: A375 cells
Experimental: A pull-down assay was conducted to further examine the effect of 1 on the p53/hDM2 interaction. A375 cells were co-transfected with cDNAs encoding p53-Flag and hDM2-myc fusion proteins. After 6 h of treatment with NVP-CGM097 or 1, p53/hDM2 complexes were immunoprecipitated using anti-Flag magnetic beads and analysed by immunoblotting.
A375 cells seeded in 6-well plates were co-transfected with pcDNA-Flag-p53 (Addgene) and pCMV-myc3-hDM2 (Addgene) for 6 h using TurboFect transfection reagent following the instruction from manufacturer. Cells were then cultured in Dulbecco's Modified Eagle's Medium (DMEM) complete medium overnight. Serial dilutions of organometallic compounds in low FBS buffer were placed into the wells, and incubated with cells for additional 6 h. Protein samples were collected, and the concentration in the supernatant was determined with the bicinchoninic acid (BCA) method. The […] of p53/hDM2 in the protein samples were pulled down using anti-Flag magnetic beads to capture the FLAG fusion proteins (Sigma) as previously described. The protein-binding beads were washed three time with TBS buffer (50 mM Tris HCl, 150 mM NaCl, pH 7.4) to remove non-specifically bound proteins, and subsequently subjected to the sodium dodecyl sulfate-polyacrylamide gel electrophoresis (SDS-PAGE) by detection with anti-Flag (1:1000, Sigma-Aldrich) and anti-myc antibodies (1:1000, Beyotime).

[3] = test system: p53 and hDM2 protein expression levels; experiment: Immunoblotting of p53 and hDM2 protein expression in A375 cells; format: cell-based, human; settings: for effect on hDM2 and p53 protein expression levels: 6 h, up to the highest concentration of 1 μM
Experimental: To assess whether 1 suppressed p53 or hDM2 protein expression levels, resulting in a decrease in the levels of precipitated protein detected in the pull-down assay, an immunoblotting experiment was performed.

GADD45α, PUMA, p21 = settings: A375 cells
Experimental: (§1) Transactivation of p53 restricts cellular proliferation by inducing apoptosis and cycle arrest. Therefore, a terminal deoxynucleotidyl transferase (TdT)-mediated dUTP nick and labelling (TUNEL) and Hoechst staining assay were then performed to investigate DNA fragmentation, a hallmark of apoptosis, in apoptotic cells. […] Finally, the effect of 1 on caspase-3/7, an apoptotic executioner under the control of p53, was investigated in A375 cells using a homogeneous luminescence assay.
A375 cells seeded in 6-well plates were treated with vehicle, NVP-CGM097 or different concentrations of 1 for 6 h. Cells were then harvested and the quantity of each protein samples was measured by the BCA method. Same aliquot (30 μg) of each protein sample was separated by SDS-PAGE according to the reported procedure of immunoblotting. The signals were visualized using Enhanced chemiluminescent Plus reagents (GE Healthcare) and analyzed by Image Lab. The primary antibodies used were: anti-PUMA (1:500, Santa Cruz), anti-GADD45α (1:500, Santa Cruz), anti-p21 (1:500, Santa Cruz), anti-GAPDH (1:500, Santa Cruz), anti-p53 (1:500, Santa Cruz) and anti-hDM2 antibodies (1:500, Santa Cruz).

A375 cells = settings: 0.3 μM, 6 h
Experimental: as §1

caspase-3/7 = settings: A375 cells, 6 h, dose-dependent
Experimental: as §1

A2780 = settings: read-out: IC50 (MTT), A2780; human ovarian carcinoma, p53 wt, 72 h
Experimental: (§2) The cytotoxicity of 1 towards ten cancers cell lines with different p53 statuses (wt, mut or null) was subsequently examined assessed using the MTT assay (Supplementary Table S2).
(§3) Inhibition of cell growth was measured using the MTT reagent (3-(4, 5-dimethylthiazol-2-yl)-2, 5-diphenyltetrazolium bromide). Different cell lines with variable expression levels of p53 protein (A375, A549, HeLa, A2780, A431, MCF7, MD-MBA-231, MD-MBA-468, T47D and H1299 cell lines) were plated onto 96-well plates at a density of 4, 000 cells/well overnight prior to the addition of 1 at different concentrations ranging from 0.01–100 μM for a further 72 h. 10 μL MTT reagent (5 mg/mL) was added to the wells and the cells were incubated for an additional 4 h before 100 μL of DMSO was added to the wells. The absorbance of each well was read on a SpectraMax M5 microplate reader (Molecular Devices) at the wavelength of 570 nm.

A375 = settings: read-out: IC50 (MTT), A375; human malignant melanoma, p53 wt, 72 h
Experimental: as §2, §3

A431 = settings: read-out: IC50 (MTT), A431; human colon carcinoma (so in the source), p53 wt, 72 h
Experimental: as §2, §3

A549 = settings: read-out: IC50 (MTT), A549; human lung carcinoma, p53 wt, 72 h
Experimental: as §2, §3

H1299 = settings: read-out: IC50 (MTT), H1299; human lung carcinoma, p53 null, 72 h
Experimental: as §2, §3

HeLa = settings: read-out: IC50 (MTT), HeLa; human cervix carcinoma, p53 wt, 72 h
Experimental: as §2, §3

MCF7 = settings: read-out: IC50 (MTT), MCF7; human breast carcinoma, p53 wt, 72 h
Experimental: as §2, §3

MD-MBA-231 = settings: read-out: IC50 (MTT), MD-MBA-231; human breast carcinoma, p53 mut, 72 h
Experimental: as §2, §3

MD-MBA-468 = settings: read-out: IC50 (MTT), MD-MBA-468; human breast carcinoma, p53 mut, 72 h
Experimental: as §2, §3

T47D = settings: read-out: IC50 (MTT), T47D; human breast carcinoma, p53 mut, 72 h
Experimental: as §2, §3

[4] = 298 K
Source text: (1 picture or pasted object on this page, not shown here) […]

p53/hDM2 PPI = p53/hDM2 PPI (Homo sapiens, UniProt Q00987); settings: read-out: IC50, decrease of BRET (p53-HaloTag / NanoLuc-hDM2); A375 cells, 6 h
[5] = test system: p53-driven luciferase activity; settings: A375 cells carrying endogenous wt p53, 6 h
[6] = target: T3, hDM2(17-126) recombinant fragment (human, UniProt Q00987 17-126); experiment: fluorescence polarisation; fluorescence anisotropy competition: 150 nM hDM2(17-126) and 50 nM p53(15-31)Flu with serial dilutions of iridium(III) compounds; 40 mM Na3PO4 pH 7.50, 200 mM NaCl, 0.02 mg/mL BSA; room temperature, 30 min; 480ex/535em; settings: both partners purified
T3 construct: human double minute 2 protein (hDM2, MDM2), human, residues 17-126; also called human double minute 2 protein; source: recombinant fragment, expressed as described previously [33]

Molecule: CCc1ccc2[c](c1)[Ir-3]13([c]4cc(CC)ccc4-c4cccc[n+]41)([n+]1ccccc1-2)[n+]1ccc(Cl)c2ccc4c(Cl)cc[n+]3c4c21.F[P-](F)(F)(F)(F)F [Compound 1, 4,7-dichloro-1, 10-phenanthrolinebis(2-(4-ethylphenyl)pyridine)iridium(III) hexafluorophosphate]
IC50 (p53/hDM2 interaction [1]): 16000 nM
effect on fluorescence anisotropy / p53/hDM2 interaction (p53/hDM2 interaction [1]): decreased significantly
amount of precipitated hDM2 (pulled down with p53-Flag) (p53/hDM2 interaction [2]): decreased
effect on hDM2 and p53 protein expression levels [3]: no effect
expression of GADD45α (GADD45α, PUMA, p21): significantly increased
expression of PUMA (GADD45α, PUMA, p21): significantly increased
expression of p21 (GADD45α, PUMA, p21): induced
DNA fragmentation (TUNEL) (A375 cells): induce DNA fragmentation
caspase-3/7 activities (caspase-3/7): significantly activate
IC50 (A2780): 495 ± 32 nM
IC50 (A375): 647 ± 35.4 nM
IC50 (A431): 416 ± 37.4 nM
IC50 (A549): 232 ± 21.8 nM
IC50 (H1299): 2200 ± 38.3 nM
IC50 (HeLa): 480 ± 44.7 nM
IC50 (MCF7): 547 ± 41 nM
IC50 (MD-MBA-231): 835 ± 42.9 nM
IC50 (MD-MBA-468): 1890 ± 23.3 nM
IC50 (T47D): 783 ± 483 nM
time stable in solution (UV-Vis) ([4]; 80% acetonitrile/20% Tris-HCl buffer, 20 μM): at least 7 days
time stable in solution (1H NMR) ([4]; 90% [d6] DMSO/10% D2O, 5 mM): at least 7 days
IC50 (p53/hDM2 PPI): ~1000 nM
p53-dependent luciferase activity [5]: increase

Molecule: F[P-](F)(F)(F)(F)F.[Ir+3].[c-]1ccccc1-n1cccn1.[c-]1ccccc1-n1cccn1.c1ccc(-c2ccccn2)nc1 [Compound 3, 2, 2′-bipyridinebis(1-phenyl-1H-pyrazole)iridium(III) hexafluorophosphate]
IC50 against the p53/hDM2 interaction as determined by a FA assay (p53/hDM2 interaction [1]): No noticeable binding
effect on fluorescence anisotropy / p53/hDM2 interaction (p53/hDM2 interaction [1]): no noticeable effect

Molecule: Clc1cc2ccc[n+]3c2c2c1ccc[n+]2[Ir-3]312([c]3ccccc3-c3sc4ccccc4[n+]31)[c]1ccccc1-c1sc3ccccc3[n+]12.F[P-](F)(F)(F)(F)F [Compound 4, 5-chloro-1, 10-phenanthrolinebis(2-phenylbenzo[d]thiazole)iridium(III) hexafluorophosphate]
IC50 against the p53/hDM2 interaction as determined by a FA assay (p53/hDM2 interaction [1]): No noticeable binding
effect on fluorescence anisotropy / p53/hDM2 interaction (p53/hDM2 interaction [1]): no noticeable effect

Molecule: F[P-](F)(F)(F)(F)F.c1cc[c]2c(c1)-c1ccc3ccccc3[n+]1[Ir-3]213([c]2ccccc2-c2ccc4ccccc4[n+]21)[n+]1cccc2c4nccnc4c4ccc[n+]3c4c21 [Compound 5, pyrazino[2,3-f][1, 10]phenanthrolinebis(2-phenylquinoline)iridium(III) hexafluorophosphate]
IC50 (p53/hDM2 interaction [1]): 21000 nM
effect on fluorescence anisotropy / p53/hDM2 interaction (p53/hDM2 interaction [1]): decreased significantly

Molecule: Clc1cc2nc3c4cccnc4c4ncccc4c3nc2cc1Cl.F[P-](F)(F)(F)(F)F.Fc1c[c-]c(-c2ccccn2)c(F)c1.Fc1c[c-]c(-c2ccccn2)c(F)c1.[Ir+3] [Compound 6, 11, 12-dichlorodipyrido[3,2-a:2′,3′-c]phenazinebis(2-(2,4-difluorophenyl)pyridine)iridium(III) hexafluorophosphate]
IC50 (p53/hDM2 interaction [1]): 33000 nM
effect on fluorescence anisotropy / p53/hDM2 interaction (p53/hDM2 interaction [1]): decreased significantly

Molecule: COc1cc2c(cc1OC(C)C)[C@H](c1ccc(Cl)cc1)N(c1ccc(N(C)C[C@H]3CC[C@H](N4CCN(C)C(=O)C4)CC3)cc1)C(=O)C2 [NVP-CGM097, reference compound]
amount of precipitated hDM2 (pulled down with p53-Flag) (p53/hDM2 interaction [2]): decreased
expression of hDM2 protein ([3]; 1 μM): significantly increased

Molecule: Clc1ccnc2c1ccc1c(Cl)ccnc12 [dcphen, 4,7-dichloro-1, 10-phenanthroline]
effect of isolated ligands on the p53/hDM2 interaction (p53/hDM2 interaction [2]): Neither eppy nor dcphen ligands were found to have a significant effect
effect on hDM2 and p53 protein expression levels [3]: Neither eppy nor dcphen ligands were found to have a significant effect

Molecule: CCc1ccc(-c2ccccn2)cc1 [eppy, 2-(4-ethylphenyl)pyridine]
effect of isolated ligands on the p53/hDM2 interaction (p53/hDM2 interaction [2]): Neither eppy nor dcphen ligands were found to have a significant effect
effect on hDM2 and p53 protein expression levels [3]: Neither eppy nor dcphen ligands were found to have a significant effect

binding result [6]: binds
B1: fluorescein-labelled p53 peptide (p53 15-31 Flu) (peptide)
peptide: SQETFSDLWKLLPENNVC
modifications: N-terminal acetyl (Ac-); fluorescein on the C-terminal cysteine, C(Flu); C-terminal amide (-NH2)
notes: added C-terminal cysteine that carries the fluorescein; not part of p53 15-31; source: synthetic peptide, bought: Peptide Protein Research Ltd
